In the NIST ThermoML archive (doi:10.1021/je030127e):

Assay: xn = mol fraction of the nth substance listed
Conditions: 101.3 kPa, Liquid; for viscosity: Capillary tube (Ostwald / Ubbelohde) method

CCCCN [1-butanamine] + COCCO
Conditions | speed of sound, 298.15 K [m/s] | viscosity, 293.15 K [mPa·s] | viscosity, 298.15 K [mPa·s] | viscosity, 303.15 K [mPa·s]
x2 = 0 | 1251.6 | 0.525 | 0.496 | 0.467
x2 = 0.0501 | 1257 | 0.566 | 0.536 | 0.504
x2 = 0.0999 | 1262.3 | 0.613 | 0.578 | 0.544
x2 = 0.1508 | 1267.7 | 0.669 | 0.625 | 0.588
x2 = 0.2001 | 1273.1 | 0.731 | 0.68 | 0.636
x2 = 0.2509 | 1278.4 | 0.801 | 0.743 | 0.691
x2 = 0.3 | 1283.6 | 0.879 | 0.81 | 0.75
x2 = 0.3498 | 1288.8 | 0.964 | 0.886 | 0.815
x2 = 0.4001 | 1294 | 1.053 | 0.966 | 0.885
x2 = 0.4511 | 1299.1 | 1.146 | 1.049 | 0.957
x2 = 0.5001 | 1304 | 1.238 | 1.133 | 1.031
x2 = 0.5496 | 1308.8 | 1.327 | 1.214 | 1.103
x2 = 0.5997 | 1313.5 | 1.412 | 1.29 | 1.17
x2 = 0.6503 | 1318.1 | 1.488 | 1.358 | 1.232
x2 = 0.7 | 1322.4 | 1.552 | 1.415 | 1.286
x2 = 0.7492 | 1326.6 | 1.604 | 1.461 | 1.327
x2 = 0.7999 | 1330.7 | 1.643 | 1.493 | 1.359
x2 = 0.8491 | 1334.5 | 1.671 | 1.516 | 1.379
x2 = 0.8993 | 1338 | 1.686 | 1.525 | 1.389
x2 = 0.95 | 1341.4 | 1.696 | 1.533 | 1.395
